Our source for the DC50 and Dmax values is patent publication US20250114345A1, “COMPOUNDS AND COMPOSITIONS AS CBP/P300 DEGRADERS AND USES THEREOF” (Oncopia Therapeutics, Inc. d/b/a/ SK Life Science Labs, priority 2023, published 2025).

A word on the DC50: it is the midpoint of the concentration-degradation curve. Read a low DC50 as a more potent degrader. Broadly, the Dmax is the largest share of the target that was removed. Read a high Dmax as deep degradation.

Experiment [1] deals with T1, CBP (Homo sapiens, UniProt Q92793).
T1 construct: host or cells: A549 CBP HiBit cells
Briefly: CBP degradation, HiBit technology in A549 CBP HiBit cells (24 h). The format is cell-based. The note with it: 24 hrs post treatment. An outline of the steps: (§1)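 HiBiT knock-in A549 cells received compound in serial dilution at 37 °C under 5% CO2. Remaining tagged protein was quantified by lytic HiBiT luminescence after 10 min shaking at room temperature, yielding potency and maximal degradation.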

Experiment [2] concerns the target T2, p300 (Homo sapiens, UniProt Q09472).
T2 construct: host or cells: A549 P300 HiBit cells
Briefly: P300 degradation, HiBit technology in A549 P300 HiBit cells (2 h). The format is cell-based. The note with it: 2 hrs post treatment; for Dmax: A549, A549 P300 HiBit cells; for DC50: A549 P300 HiBit cells. In a few lines: as §1

T2 sequence (Q09472 whole entry): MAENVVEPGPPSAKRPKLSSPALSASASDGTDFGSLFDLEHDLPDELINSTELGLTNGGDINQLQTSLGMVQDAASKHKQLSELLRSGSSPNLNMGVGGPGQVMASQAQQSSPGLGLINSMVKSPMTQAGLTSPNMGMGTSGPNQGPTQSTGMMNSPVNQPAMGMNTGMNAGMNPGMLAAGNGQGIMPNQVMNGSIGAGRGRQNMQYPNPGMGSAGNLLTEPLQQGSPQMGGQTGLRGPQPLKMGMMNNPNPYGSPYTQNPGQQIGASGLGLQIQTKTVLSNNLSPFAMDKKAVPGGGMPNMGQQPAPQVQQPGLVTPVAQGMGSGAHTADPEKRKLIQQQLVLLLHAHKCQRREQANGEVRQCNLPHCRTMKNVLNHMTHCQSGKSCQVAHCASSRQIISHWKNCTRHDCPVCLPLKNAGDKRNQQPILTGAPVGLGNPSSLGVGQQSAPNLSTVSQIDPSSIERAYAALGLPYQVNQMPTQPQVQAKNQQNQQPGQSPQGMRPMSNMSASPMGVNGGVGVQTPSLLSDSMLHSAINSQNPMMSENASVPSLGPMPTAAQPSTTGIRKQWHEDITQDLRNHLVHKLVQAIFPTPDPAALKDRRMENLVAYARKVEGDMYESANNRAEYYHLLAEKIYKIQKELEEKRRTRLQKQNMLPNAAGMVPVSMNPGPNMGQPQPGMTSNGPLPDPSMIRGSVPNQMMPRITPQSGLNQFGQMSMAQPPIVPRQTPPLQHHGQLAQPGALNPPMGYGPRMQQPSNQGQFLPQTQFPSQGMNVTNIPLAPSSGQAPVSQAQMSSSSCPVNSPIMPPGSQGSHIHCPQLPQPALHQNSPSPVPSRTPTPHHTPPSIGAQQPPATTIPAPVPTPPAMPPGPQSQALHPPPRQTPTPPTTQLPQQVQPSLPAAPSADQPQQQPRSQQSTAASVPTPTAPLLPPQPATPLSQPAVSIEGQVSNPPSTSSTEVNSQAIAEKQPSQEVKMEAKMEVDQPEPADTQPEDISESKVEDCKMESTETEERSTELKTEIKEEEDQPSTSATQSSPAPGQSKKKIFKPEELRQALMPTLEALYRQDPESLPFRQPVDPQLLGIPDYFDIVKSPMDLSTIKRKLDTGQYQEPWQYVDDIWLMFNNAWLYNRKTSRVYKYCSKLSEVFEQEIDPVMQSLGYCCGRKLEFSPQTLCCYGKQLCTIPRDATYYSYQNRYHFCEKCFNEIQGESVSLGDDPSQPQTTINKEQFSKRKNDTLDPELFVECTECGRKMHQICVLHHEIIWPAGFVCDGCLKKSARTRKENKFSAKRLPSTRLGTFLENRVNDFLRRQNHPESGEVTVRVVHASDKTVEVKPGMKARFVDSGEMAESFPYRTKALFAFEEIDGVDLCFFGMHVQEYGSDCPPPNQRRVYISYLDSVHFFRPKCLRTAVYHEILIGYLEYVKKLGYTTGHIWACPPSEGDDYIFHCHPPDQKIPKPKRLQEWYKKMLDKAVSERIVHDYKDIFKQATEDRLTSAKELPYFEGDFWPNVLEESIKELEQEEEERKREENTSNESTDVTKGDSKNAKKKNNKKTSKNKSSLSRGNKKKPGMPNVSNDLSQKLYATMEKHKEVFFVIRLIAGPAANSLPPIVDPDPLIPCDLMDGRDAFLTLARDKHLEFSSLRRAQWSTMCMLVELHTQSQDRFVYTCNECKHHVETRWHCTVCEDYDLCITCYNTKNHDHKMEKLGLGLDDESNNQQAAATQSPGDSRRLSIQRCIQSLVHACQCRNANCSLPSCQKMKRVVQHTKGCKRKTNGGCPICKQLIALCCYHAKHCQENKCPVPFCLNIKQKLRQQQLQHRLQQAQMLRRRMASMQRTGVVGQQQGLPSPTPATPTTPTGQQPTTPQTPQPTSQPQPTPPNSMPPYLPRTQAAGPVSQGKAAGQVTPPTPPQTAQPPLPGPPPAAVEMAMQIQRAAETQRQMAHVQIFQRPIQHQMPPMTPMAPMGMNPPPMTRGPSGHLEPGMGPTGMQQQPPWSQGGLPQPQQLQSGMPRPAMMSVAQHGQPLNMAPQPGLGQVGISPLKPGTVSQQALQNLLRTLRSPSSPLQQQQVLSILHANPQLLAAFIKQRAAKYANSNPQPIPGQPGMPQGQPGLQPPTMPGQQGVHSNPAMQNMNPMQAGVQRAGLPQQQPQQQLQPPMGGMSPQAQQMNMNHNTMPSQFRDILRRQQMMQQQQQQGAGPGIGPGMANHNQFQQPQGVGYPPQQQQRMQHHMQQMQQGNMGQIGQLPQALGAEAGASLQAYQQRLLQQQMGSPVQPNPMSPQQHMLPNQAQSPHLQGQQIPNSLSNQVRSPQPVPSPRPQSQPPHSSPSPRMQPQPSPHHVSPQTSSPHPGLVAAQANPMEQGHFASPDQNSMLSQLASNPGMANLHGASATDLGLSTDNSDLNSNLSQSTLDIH
T1 sequence (Q92793 whole entry): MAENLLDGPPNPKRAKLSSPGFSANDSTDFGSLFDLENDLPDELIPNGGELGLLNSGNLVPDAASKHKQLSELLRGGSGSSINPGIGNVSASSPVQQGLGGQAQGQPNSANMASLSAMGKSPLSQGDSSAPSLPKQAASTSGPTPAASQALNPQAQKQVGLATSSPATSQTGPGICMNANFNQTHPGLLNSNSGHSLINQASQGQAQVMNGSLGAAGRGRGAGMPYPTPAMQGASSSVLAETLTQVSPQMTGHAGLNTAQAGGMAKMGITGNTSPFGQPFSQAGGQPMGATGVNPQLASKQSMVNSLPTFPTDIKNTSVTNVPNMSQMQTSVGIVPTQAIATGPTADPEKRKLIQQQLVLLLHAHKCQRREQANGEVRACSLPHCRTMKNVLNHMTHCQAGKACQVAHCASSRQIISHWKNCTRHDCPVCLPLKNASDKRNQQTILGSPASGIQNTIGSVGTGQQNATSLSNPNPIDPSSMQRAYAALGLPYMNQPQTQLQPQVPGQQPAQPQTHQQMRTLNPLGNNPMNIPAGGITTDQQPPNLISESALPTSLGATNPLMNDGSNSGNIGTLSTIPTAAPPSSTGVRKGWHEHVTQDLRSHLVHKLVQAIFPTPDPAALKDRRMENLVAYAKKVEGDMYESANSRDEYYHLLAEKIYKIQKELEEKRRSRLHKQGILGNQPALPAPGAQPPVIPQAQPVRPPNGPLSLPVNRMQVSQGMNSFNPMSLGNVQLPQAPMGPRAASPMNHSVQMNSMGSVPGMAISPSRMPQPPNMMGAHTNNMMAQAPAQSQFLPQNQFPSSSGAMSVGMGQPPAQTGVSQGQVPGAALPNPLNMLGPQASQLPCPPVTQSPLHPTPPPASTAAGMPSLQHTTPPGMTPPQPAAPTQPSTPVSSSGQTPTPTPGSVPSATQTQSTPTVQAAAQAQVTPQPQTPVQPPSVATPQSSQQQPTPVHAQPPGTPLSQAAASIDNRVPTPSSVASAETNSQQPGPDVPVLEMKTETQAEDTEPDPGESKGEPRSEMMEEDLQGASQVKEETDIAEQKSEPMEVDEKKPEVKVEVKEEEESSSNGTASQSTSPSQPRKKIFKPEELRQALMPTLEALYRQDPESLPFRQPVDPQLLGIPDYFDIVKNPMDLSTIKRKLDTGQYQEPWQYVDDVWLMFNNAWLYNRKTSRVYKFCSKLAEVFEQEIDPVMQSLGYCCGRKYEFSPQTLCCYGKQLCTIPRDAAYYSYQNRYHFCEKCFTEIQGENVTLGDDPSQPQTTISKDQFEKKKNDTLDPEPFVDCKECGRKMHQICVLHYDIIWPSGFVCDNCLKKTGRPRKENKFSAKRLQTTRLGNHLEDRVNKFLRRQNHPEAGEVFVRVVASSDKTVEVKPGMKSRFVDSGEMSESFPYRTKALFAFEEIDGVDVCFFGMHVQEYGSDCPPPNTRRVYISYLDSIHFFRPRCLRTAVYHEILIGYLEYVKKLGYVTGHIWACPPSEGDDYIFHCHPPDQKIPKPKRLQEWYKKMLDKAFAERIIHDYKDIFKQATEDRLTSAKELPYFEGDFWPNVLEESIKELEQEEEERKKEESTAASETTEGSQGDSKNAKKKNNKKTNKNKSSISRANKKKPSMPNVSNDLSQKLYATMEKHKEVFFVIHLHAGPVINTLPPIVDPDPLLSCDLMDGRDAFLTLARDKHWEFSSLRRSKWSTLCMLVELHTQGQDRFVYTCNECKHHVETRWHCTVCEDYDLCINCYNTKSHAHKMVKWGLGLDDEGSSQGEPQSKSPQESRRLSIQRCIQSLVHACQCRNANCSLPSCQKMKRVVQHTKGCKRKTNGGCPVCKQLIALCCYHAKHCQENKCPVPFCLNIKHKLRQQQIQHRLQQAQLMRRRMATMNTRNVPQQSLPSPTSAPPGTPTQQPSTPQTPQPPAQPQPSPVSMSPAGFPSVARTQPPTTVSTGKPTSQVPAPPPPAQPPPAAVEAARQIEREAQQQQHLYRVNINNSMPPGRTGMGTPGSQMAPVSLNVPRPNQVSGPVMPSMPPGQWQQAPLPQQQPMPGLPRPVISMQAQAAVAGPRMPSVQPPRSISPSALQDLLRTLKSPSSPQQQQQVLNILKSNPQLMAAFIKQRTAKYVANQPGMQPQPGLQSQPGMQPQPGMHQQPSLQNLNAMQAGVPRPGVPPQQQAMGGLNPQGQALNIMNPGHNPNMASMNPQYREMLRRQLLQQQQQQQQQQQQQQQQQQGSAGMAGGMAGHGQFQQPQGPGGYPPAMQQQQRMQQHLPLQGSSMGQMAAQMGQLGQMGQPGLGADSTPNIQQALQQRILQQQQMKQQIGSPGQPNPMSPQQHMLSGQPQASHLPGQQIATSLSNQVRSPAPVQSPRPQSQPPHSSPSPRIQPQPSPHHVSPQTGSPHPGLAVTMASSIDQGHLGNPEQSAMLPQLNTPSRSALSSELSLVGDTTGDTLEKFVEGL

In experiment [1], `Cc1cc2c(-c3cn(C)c(=O)c4cc(-c5ccc(C(=O)NCC#Cc6cc7c(C8CCC(=O)NC8=O)cccc7o6)nc5)ncc34)cc(C3CCOCC3)nc2n(C)c1=O` (stereo not drawn) [Example B160, 5-(8-(6,8-dimethyl-7-oxo-2-(tetrahydro-2H-pyran-4-yl)-7,8-dihydro-1,8-naphthyridin-4-yl)-6-methyl-5-oxo-5,6-dihydro-2,6-naphthyridin-3-yl)-N-(3-(4-(2,6-dioxopiperidin-3-yl)benzofuran-2-yl)prop-2-yn-1-yl)picolinamide] came in with a half-maximal degradation concentration (DC50) of more than 1000 nM and a Dmax of less than 20%. In experiment [2], this molecule had a maximal degradation (Dmax) of more than 80% and a DC50 of 1 to 9.9 nM.
For `CC(C)c1cc(-c2cccc3cc(-c4ccc(C(=O)NCC#Cc5ccn6ncc(C7CCC(=O)NC7=O)c6c5)nc4)ncc23)cc2c1n(C)c(=O)n2C` (stereo not drawn) [Example A172, N-(3-(3-(2,6-dioxo-piperidin-3-yl)pyrazolo[1,5-a]pyridin-5-yl)prop-2-yn-1-yl)-5-(8-(7-isopropyl-1,3-dimethyl-2-oxo-2,3-dihydro-1H-benzo[d]imidazol-5-yl)isoquinolin-3-yl)picolinamide] the same measures were 100 to 999 nM, less than 20%, more than 80% and less than 1 nM.
For `CC(C)c1cc(-c2cccc3cc(-c4ccc(C(=O)NCC#Cc5ccc6c(c5)n(C5CCC(=O)NC5=O)c(=O)n6C)nc4)ncc23)cc2c1n(C)c(=O)n2C` (stereo not drawn) [Example A18, N-(3-(3-(2,6-Dioxopiperidin-3-yl)-1-methyl-2-oxo-2,3-dihydro-1H-benzo[d]imidazol-5-yl)prop-2-yn-1-yl)-5-(8-(7-isopropyl-1,3-dimethyl-2-oxo-2,3-dihydro-1H-benzo[d]imidazol-5-yl)isoquinolin-3-yl)picolinamide] the same measures were 10 to 99 nM, 60 to 79%, more than 80% and 1 to 9.9 nM.
For `Cn1c(=O)n(C)c2c(N3CC4CC(C3)O4)nc(-c3cccc4cc(-c5ccc(C(=O)NCC#Cc6cc7c(C8CCC(=O)NC8=O)cccc7o6)nc5)ncc34)cc21` (stereo not drawn) [Example A210, 5-(8-(4-(6-oxa-3-azabicyclo[3.1.1]heptan-3-yl)-1,3-dimethyl-2-oxo-2,3-dihydro-1H-imidazo[4,5-c]pyridin-6-yl)isoquinolin-3-yl)-N-(3-(4-(2,6-dioxopiperidin-3-yl)benzofuran-2-yl)prop-2-yn-1-yl)picolinamide] the same measures were more than 1000 nM, less than 20%, more than 80% and less than 1 nM.
In experiment [1], `Cc1cc(-c2cc3c(cn2)N(c2cc(C(C)C)c4c(c2)n(C)c(=O)n4C)CCC3)cnc1C(=O)NCC#Cc1ccn2ncc(C3CCC(=O)NC3=O)c2c1` (stereo not drawn) [Example A238, N-(3-(3-(2,6-dioxo-piperidin-3-yl)pyrazolo[1,5-a]pyridin-5-yl)prop-2-yn-1-yl)-5-(1-(7-isopropyl-1,3-dimethyl-2-oxo-2,3-dihydro-1H-benzo[d]imidazol-5-yl)-1,2,3,4-tetrahydro-1,7-naphthyridin-6-yl)-3-methylpicolinamide] came in with a 50% degradation concentration (DC50) of 1 to 9.9 nM and a Dmax of 40 to 59%. In addition, in experiment [2], the maximal degradation (Dmax) is more than 80% and the DC50 is less than 1 nM.
For `Cc1cc2c(N3CCCc4nc(-c5ccc(C(=O)NCC#Cc6ccc7occ(C8CCC(=O)NC8=O)c7c6)nc5)ncc43)cc(N3CCOCC3)nc2n(C)c1=O` (stereo not drawn) [Example B61, 5-(5-(6,8-dimethyl-2-morpholino-7-oxo-7,8-dihydro-1,8-naphthyridin-4-yl)-5,6,7,8-tetrahydropyrido[3,2-d]pyrimidin-2-yl)-N-(3-(3-(2,6-dioxopiperidin-3-yl)benzofuran-5-yl)prop-2-yn-1-yl)picolinamide] the same measures were more than 1000 nM, less than 20%, 60 to 79% and 1 to 9.9 nM.
